Target: T1, human GPR84 receptor (Homo sapiens, UniProt Q9NQS5)
T1 construct: host or cells: HEK293 cells, transient transfection
Test: Gαi biosensor BRET assay in HEK293 cells transfected with GPR84, stimulated with the GPR84 agonist ZQ-16
Type: cell-based
Conditions: 200 nmol/L ZQ-16; for inhibition at 10 µM / inhibition at 2 µM: HEK293, single concentration; for inhibition at 10 µM: concentration class F = 10 μM; for inhibition at 2 µM: concentration class A = 2 μM
Text: Background—The following assays can be used for determination of GPR84 activation in living HEK293 cells. The Gαi BRET biosensor (Gagnon et al., 2018; Gales et al., 2006. Nat Struct Mol Biol. 13, 778-86; Saulieres et al., 2012. Nat Chem Biol. 8, 622-30) allows to directly monitor GPR84-mediated activation of Gαi. The Gαi biosensor consists of a Rluc8-tagged Gαi2 subunit, a GFP10-tagged Gγ2 subunit, and an untagged GB1. Agonist stimulation and GPR84 activation triggers a physical separation between the RLuc8-Gαi donor and the GFP10-Gγ2 acceptor, resulting in a decrease in BRET signal whose amplitude is correlated to ligand efficacy (Gales et al., 2006). Moreover, signaling functions of GPCRs are tightly regulated by endocytosis, the targeting of receptors to endosomes and their sorting to lysosomes or recycling to the plasma membrane. The early endosomes (EEs) trafficking assay (Namkung et al., 2016. Nat Commun. 7, 12178) uses Rluc8-tagged GPR84 and Renilla GFP (rGFP) attached to the FYVE domain from human endofin/zinc finger FYVE domain-containing protein 16, which binds phosphatidylinositol 3-phosphate in EEs. Agonist stimulation of GPR84-Rluc8 leads to trafficking of the receptor to EEs, and ensuing increase of the donor concentration relative to the rGFP-FYVE acceptor anchored in the same cellular compartment, and thus results in an increase in BRET signal.
Plasmids—The cDNA clones for human GPR84 receptor, human Gαi2, Gβ1, and Gγ2 were obtained from the cDNA Resource Center (www.cdna.org). GFP10 (F64L, S147P, S202F and H231L variant of Aequorea victoria Green Fluorescent Protein) gBlocks gene fragments (Integrated DNA Technologies, IA) and linker were inserted in frame at the N-terminus of human Gγ2. Rluc8 (A^55T, Cl24A, S130A, K136R, A^143M, M185V, M253L, and S287L variant of the Renilla reniformis luciferase) gBlocks gene fragment was inserted with linkers in frame in between residues 91 and 92 of Gαi2 or at the C-terminus of GPR84. The FYVE domain from human endofin (residues Q739 to K806) attached in frame at the C terminus of a humanized Renilla GFP (rGFP), were synthesized as gBlocks gene fragments.
Bioluminescence Resonance Energy Transfer (BRET) Measurement-HEK293 cells were transfected with GPR84-Rluc8 and rGFP-FYVE for the EEs trafficking biosensor or with GPR84, Gαi2-Rluc8, GFP10-Gγ2, and Gβ1 for the Gαi biosensor. The following day, transiently transfected cells were seeded in 96-well white clear bottom microplates coated with poly-D-lysine and left in culture for 24 hours. Cells were washed once with Tyrode's buffer (140 mmol/L NaCl, 1 mmol/L CaCl2, 2.7 mmol/L KCl, 0.49 mmol/L MgCl2, 0.37 mmol/L NaH2PO4, 5.6 mmol/L glucose, 12 mmol/L NaHCO3, and 25 mmol/L HEPES, pH 7.5) before performing assays in Tyrode's buffer. Test compounds were incubated with cells for 5 (Gai) or 15 (EEs) minutes at 37° C. before addition of 200 nmol/L of the GPR84 agonist ZQ-16 (2-(Hexylthio)-6-hydroxy-4 (3H)-pyrimidinone) for 5 minutes at room temperature (Gai) or 30 minutes at 37° C. (EEs). The Rluc8 substrate coelenterazine 400A (Prolume, Lakeside, AZ) was added at a final concentration of 5 μmol/L and BRET readings were collected using an Infinite M1000 microplate reader (Tecan, Morrisville, NC). BRET2 readings between Rluc8 and GFP10 or rGFP were collected by sequential integration of the signals detected in the 370 to 450 nm (Rluc8) and 510 to 540 nm (GFP10, rGFP) windows. The BRET signal was calculated as the ratio of light emitted by acceptor (GFP10, rGFP) over the light emitted by donor (Rluc8). The values were corrected to net BRET by subtracting the background BRET signal obtained in cells transfected with Rluc8 constructs alone. Ligand-promoted net BRET values were calculated by subtracting vehicle-induced net BRET from ligand-induced net BRET.

T1 sequence (Q9NQS5 whole entry): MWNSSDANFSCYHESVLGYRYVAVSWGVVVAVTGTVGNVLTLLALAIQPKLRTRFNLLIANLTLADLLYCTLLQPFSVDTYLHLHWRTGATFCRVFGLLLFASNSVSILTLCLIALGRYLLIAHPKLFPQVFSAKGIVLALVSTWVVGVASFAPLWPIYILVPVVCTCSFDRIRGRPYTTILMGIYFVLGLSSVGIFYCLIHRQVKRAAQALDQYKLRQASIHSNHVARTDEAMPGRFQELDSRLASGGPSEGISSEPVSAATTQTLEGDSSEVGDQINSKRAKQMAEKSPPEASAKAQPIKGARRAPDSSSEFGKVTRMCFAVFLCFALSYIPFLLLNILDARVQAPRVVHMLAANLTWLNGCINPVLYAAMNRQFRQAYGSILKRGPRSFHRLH

| SMILES | IC50 [nM] | inhibition at 10 µM [%] | inhibition at 2 µM [%] |
| --- | --- | --- | --- |
| CN(C)c1cc(N2CC3(COC3)C2)ccc1-c1cn(CC2OCC(C)(C)CO2)cn1 [Compound I-45, 2-(1-((5,5-dimethyl-1,3-dioxan-2-yl)methyl)-1H-imidazol-4-yl)-N,N-dimethyl-5-(2-oxa-6-azaspiro[3.3]heptan-6-yl)aniline] | 1000 to 3000 | > 75 |  |
| COc1ccc(C#Cc2cnn(CC3OCC(C)(C)CO3)n2)cc1 [Compound I-46] |  | ≤ 25 |  |
| Cc1cc(N2CCN(C(C)c3ccccn3)CC2)ccc1-c1cn(CC2OCC3(CC3)CO2)cn1 (centres unmarked) [Compound I-48] | ≤ 300 | > 75 |  |
| CC1(C)COC(Cn2cc(-c3ncc(C(F)(F)F)cc3OC3CC3)nn2)OC1 [Compound I-49] |  |  | 50 to 75 |
| CN(C)c1cc(N2CC(C)(CO)C2)c(F)cc1-c1cn(CC2OCC3(CC3)CO2)cn1 [Compound I-52] | ≤ 300 | > 75 |  |
| [2H]C([2H])([2H])N(c1cc(N2CC(C)(CO)C2)ccc1-c1cn(CC2OCC3(CC3)CO2)nn1)C([2H])([2H])[2H] [Compound I-55] | 300 to 1000 | > 75 |  |
| CCc1cc(N2CCN(Cc3ccccn3)CC2)ccc1-c1cn(CC2OCC3(CC3)CO2)cn1 [Compound I-56] | ≤ 300 | > 75 |  |
| CC1(C)COC(Cn2cc(Cc3cc(C#CC4CC4)ccc3C(F)(F)F)nn2)OC1 [Compound I-58] |  | > 75 |  |
| O=C1OC(c2ccc(C#CC3CC3)cc2)CN1CC1CCCCO1 (centres unmarked) [Compound I-65] |  | 25 to 50 |  |
| Cc1ccc(C#CC2CC2)cc1C(F)(F)c1cn(CC2CCCCO2)nn1 (centres unmarked) [Compound I-99] |  |  | 50 to 75 |
| Cc1cc(C#CCN2CC(C)(C)C2)cnc1-c1nnn(CC2OCC(C)(C)CO2)n1 [Compound I-111] | 1000 to 3000 | > 75 |  |
| CC1(C)COC(Cn2cc(Cc3cc(C#CC4CC4)ccc3Cl)nn2)OC1 [Compound I-136] | 1000 to 3000 | > 75 |  |
| CN(C)c1cc(N2CCN(Cc3ccccn3)CC2)ccc1-c1cn(CC2OCC(C)(C)CO2)cn1 [Compound I-137] |  | ≤ 25 |  |
| Cc1cc(N2CCN(Cc3ccccn3)CC2)ccc1-c1cn(CC2OCC3(CC3)CO2)cn1 [Compound I-139] |  | > 75 |  |
| CC1(CO)CN(c2ccc(-c3cn(CC4OCC5(CCC5)O4)nn3)c(CC(F)(F)F)c2)C1 (centres unmarked) [Compound I-144] |  | > 75 |  |
| CCN(CC)c1cc(N2CC(C)(CO)C2)ccc1-c1cn(CC2OCC3(CC3)CO2)nn1 [Compound I-147] |  | > 75 |  |
| CN(c1ccc(C#CC2CC2)cc1)c1cn(CC2OCC(C)(C)CO2)nn1 [Compound I-149] |  | ≤ 25 |  |
| Clc1cc(N2CCN(Cc3ccccn3)CC2)cnc1-c1cn(CC2OCC3(CC3)CO2)cn1 [Compound I-212] |  | 50 to 75 |  |
| Clc1cc(N2CCN(Cc3ccccn3)CC2)cnc1-c1cncn1CC1OCC2(CC2)CO1 [Compound I-214] |  | 50 to 75 |  |
| Clc1cc(N2CCN(Cc3ccccn3)CC2)cnc1-c1c[nH]cn1 [Compound I-215] |  | ≤ 25 |  |

Results, then the molecule that gave them:

| IC50 [nM] | inhibition at 10 µM [%] | inhibition at 2 µM [%] | SMILES |
| --- | --- | --- | --- |
|  | 50 to 75 |  | CN(C)C(=O)Cn1cnc(-c2ccc(N3CC(C)(CO)C3)cc2N(C)C)c1 [Compound I-47] |
| 300 to 1000 |  |  | [2H]C([2H])([2H])N(c1cc(N2CC(C)(CO)C2)ccc1-c1cn(CC2OCC(C)(C)CO2)nn1)C([2H])([2H])[2H] [Compound I-50] |
|  | > 75 |  | CN(C)C(=O)Cn1cnc(-c2ncc(C#CC3CC3)cc2OC2CC2)c1 [Compound I-51] |
|  | ≤ 25 |  | C(#CC1CC1)c1cnc(-c2cncn2C[C@H]2CCCCO2)c(OC2CC2)c1 [Compound I-53] |
| ≤ 300 |  | > 75 | C(#CC1CC1)c1cnc(-c2cn(C[C@H]3CCCCO3)cn2)c(OC2CC2)c1 [Compound I-54] |
|  | 25 to 50 |  | O=C(NC1CC1)c1cnc(-c2cn(CC3OCC4(CC4)CO3)nn2)c(OC2CC2)c1 [Compound I-57] |
|  | ≤ 25 |  | CN(C(=O)c1cnc(-c2cn(CC3OCC4(CC4)CO3)nn2)c(OC2CC2)c1)C1CC1 [Compound I-59, 6-(1-((5,7-dioxaspiro[2.5]octan-6-yl)methyl)-1H-1,2,3-triazol-4-yl)-5-cyclopropoxy-N-cyclopropyl-N-methylnicotinamide] |
|  | 25 to 50 |  | CN(C)C(=O)c1cnc(-c2cn(CC3OCC4(CC4)CO3)nn2)c(OC2CC2)c1 [Compound I-61] |
|  | 25 to 50 |  | Cc1cc(N2CCN(Cc3ccccn3)CC2)ccc1-c1cn(CC(=O)N(C)C)cn1 [Compound I-62] |
|  | ≤ 25 |  | O=C(O)Cn1cc(-c2ncc(C#CC3CC3)cc2OC2CC2)nn1 [Compound I-63] |
| 300 to 1000 | > 75 |  | O=C(Cn1cc(-c2ncc(C#CC3CC3)cc2OC2CC2)nn1)N1CCCC1 [Compound I-64] |
|  | 50 to 75 |  | CNC(=O)c1cnc(-c2cn(CC3OCC4(CC4)CO3)nn2)c(OC2CC2)c1 [Compound I-66] |
|  | 25 to 50 |  | CNC(=O)Cn1cc(-c2ncc(C#CC3CC3)cc2OC2CC2)nn1 [Compound I-67] |
|  | ≤ 25 |  | C(#CC1CC1)c1cnc(-c2cn(Cc3cc4ccccc4[nH]3)nn2)c(OC2CC2)c1 [Compound I-70] |
|  | ≤ 25 |  | CN(C)C(=O)COc1cnc(-c2cn(CC(=O)N(C)C)nn2)c(OC2CC2)c1 [Compound I-71] |
|  | 25 to 50 |  | CN(C)C(=O)COc1cnc(-c2cn(CC3OCC4(CC4)CO3)nn2)c(OC2CC2)c1 [Compound I-72] |
|  | > 75 |  | CN(C)C(=O)CNc1cnc(-c2cn(CC3OCC4(CC4)CO3)nn2)c(OC2CC2)c1 [Compound I-73] |
| ≤ 300 |  | > 75 | CC1(C)CN(CC#Cc2cnc(-c3cn(CC4OCC5(CC5)CO4)nn3)c(CC3CC3)c2)C1 [Compound I-118] |
|  |  | > 75 | CC1(C)COC(Cn2cc(-c3ncc(C#CCN4CC(C)(CO)C4)cc3OC3CC3)nn2)OC1 [Compound I-143] |
|  | 25 to 50 |  | CN(c1cn(CC2OCC(C)(C)CO2)nn1)c1cc(C#N)ccc1Cl [Compound I-159] |
|  | 25 to 50 |  | CN(c1cccc(C#N)c1)c1cn(CC2OCC(C)(C)CO2)nn1 [Compound I-160] |
|  | 50 to 75 |  | NC(=O)c1cnc(-c2cn(CC3OCC4(CC4)CO3)nn2)c(OC2CC2)c1 [Compound I-204] |
| ≤ 300 |  | > 75 | c1nc(-c2cn(CC3OCC4(CC4)CO3)nn2)c(OC2CC2)cc1-c1nnn[nH]1 [Compound I-205] |
|  | ≤ 25 |  | [2H]C([2H])([2H])C1(C([2H])([2H])[2H])COC(Cn2cc(-c3ccc(N4CC(C)(CO)C4)cc3N(C)C)nn2)OC1 [Compound I-206] |
|  | 25 to 50 |  | c1ccc(CN2CCN(c3cnc(-c4cn(CC5OCC6(CC6)CO5)cn4)c(OC4CC4)c3)CC2)nc1 [Compound I-211] |
|  | 25 to 50 |  | CN(C)C(=O)CCn1cc(-c2ncc(C#CC3CC3)cc2OC2CC2)nn1 [Compound I-213] |
|  | ≤ 25 |  | CN(C)C(=O)Cn1cc(-c2ncc(C#CC3CC3)cc2OC2CC2)cn1 [Compound I-216] |
|  | 25 to 50 |  | O=C(Cn1cc(-c2ncc(C#CC3CC3)cc2OC2CC2)cn1)N1CCCC1 [Compound I-217] |

Reference: US20260256747A1, “ARYL-TRIAZOLYL AND RELATED GPR84 ANTAGONISTS AND USES THEREOF” (Liminal BioSciences Limited, priority 2022, published 2026)
